Assay results reported in ChEMBL document CHEMBL1136763, “Antiestrogenically active 1,1,2-tris(4-hydroxyphenyl)alkenes without basic side chain: synthesis and biological activity” (J Med Chem, 2003).

Legend:
[1] = system: MCF7; test: Inhibition of MCF-7 cell proliferation at 5 uM; format: functional, Homo sapiens
[2] = target: Estrogen receptor (Homo sapiens, UniProt Q92731+P03372); test: Inhibition of estradiol induced estrogen receptor transcriptional activation in MCF-7-2a cells; format: functional, cell-based

IC50 [2] | SMILES | T/C corr [1]
 | CC/C(=C(\c1ccc(O)cc1)c1ccc(OCCN(C)C)cc1)c1ccccc1 | 25%
0.2 µM | Oc1ccc(C=C(c2ccc(O)cc2)c2ccc(O)cc2)cc1 | 70%
0.01 µM | CCC(=C(c1ccc(O)cc1)c1ccc(O)cc1)c1ccc(O)cc1 | 97%
0.015 µM | CC(=C(c1ccc(O)cc1)c1ccc(O)cc1)c1ccc(O)cc1 | 88%
0.24 µM | CCCCC(=C(c1ccc(O)cc1)c1ccc(O)cc1)c1ccc(O)cc1 | 114%
0.07 µM | CCCC(=C(c1ccc(O)cc1)c1ccc(O)cc1)c1ccc(O)cc1 | 102%
 | CC/C(=C(\c1ccccc1)c1ccc(OCCN(C)C)cc1)c1ccccc1 [TAMOXIFEN] | 15%
